In patent US8686003B2, “Tissue non-specific alkaline phosphatase inhibitors and uses thereof for treating vascular calcification” (Sanford-Burnham Medical Research Institute, priority 2007, dated 2014) one finds IC50 data, which are given here for 51 compounds.

The IC50 is the midpoint of a concentration-inhibition curve. Lower therefore signals greater potency in that assay.

The target in the assay is T1, tissue-nonspecific alkaline phosphatase (TNAP) (Homo sapiens, UniProt P05186).
T1 construct: made in house; host or cells: COS-1 cells, transient expression; dialyzed serum-free conditioned medium
T1 sequence (P05186 18-502 limits assumed): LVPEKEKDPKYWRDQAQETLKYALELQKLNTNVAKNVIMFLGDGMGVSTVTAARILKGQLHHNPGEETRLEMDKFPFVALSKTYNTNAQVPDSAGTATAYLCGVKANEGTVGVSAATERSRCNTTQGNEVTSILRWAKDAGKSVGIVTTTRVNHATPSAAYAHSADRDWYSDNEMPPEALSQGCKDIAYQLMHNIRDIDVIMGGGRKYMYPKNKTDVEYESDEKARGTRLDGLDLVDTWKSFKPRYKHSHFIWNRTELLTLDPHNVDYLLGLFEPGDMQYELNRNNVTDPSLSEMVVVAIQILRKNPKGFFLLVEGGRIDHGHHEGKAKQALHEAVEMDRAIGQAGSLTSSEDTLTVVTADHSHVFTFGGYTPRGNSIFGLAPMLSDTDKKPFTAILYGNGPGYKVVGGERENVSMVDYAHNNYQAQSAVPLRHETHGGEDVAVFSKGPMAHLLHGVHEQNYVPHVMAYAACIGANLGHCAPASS
Put plainly: TNAP inhibition screening assay (colorimetric pNPP / luminescence CDP-star), IC50. Type of assay: biochemical. To be noted: Tables A-H; tissue-nonspecific alkaline phosphatase inhibitors. As to the method: Expression plasmids containing a secreted epitope-tagged TNAP, PLAP and IAP were transfected into COS-1 cells for transient expression using a standard electroporation method. Medium was replaced to Opti-MEM 24 hours later, and the serum free media containing secreted proteins were collected 60 hours after electroporation. Conditioned medium was dialyzed against TBS containing 1 mM MgCl2 ad 20 μM ZnCl2 (to remove phosphate) and filtrated with a 2 μm cellulose acetate filter.
A TNAP stock solution was diluted 120-fold and about 12 ul of diluted TNAP solution were dispensed into 96 well microtiter plates with half area bottom (Costar, Corning, N.Y.) by an auto dispenser (Matrix, Hudson, N.H.). A robotic liquid handler, Biomek™ FX (Beckman Coulter, Fullerton, Calif.) dispensed about 2.5 μl of each compound (dissolved in 10% DMSO) from the library plates. Plates were incubated at room temperature for at least one hour to allow TNAP to interact with each compound prior to addition of about 10.5 μl substrate solution (1.19 mM pNPP). After about 30 minutes of incubation, A405 nm was measured with a microtiter plate reader, Analyst™ HT (Molecular Devices, Sunnyvale, Calif.). Both the enzyme (TNAP) and substrate (pNPP) solution were made in diethanolamine (DEA) buffers; the final reaction contains 1M DEA-HCl buffer, pH about 9.8, containing about 1 mM MgCl2 and about 20 μM ZnCl2.
Compound aliquots (4 uL @ 100 uM in 10% DMSO) were added with about 8 uL of TNAP working solution, prepared by 800-fold dilution of TNAP in 2.5-fold assay buffer (250 mM DEA, pH 9.8, 2.5 mM MgCl2, 0.05 mM ZnCl2). CDP-star substrate solution (about 8 uL of 125 uM in water) was added to each well. […] Plates (white 384-well small volume Greiner 784075) were incubated at room temperature for about 0.5 hour and luminescence signal was measured using an EnVision plate reader (PerkinElmer).

For the compound `COC(=O)c1cc(-c2ccc(Br)cc2)n[nH]1` [Compound A8, methyl 3-(4-bromophenyl)-1H-pyrazole-5-carboxylate], the IC50 was found to be 0.31 µM.

For the compound `O=C(O)c1cc(-c2ccccc2Cl)n[nH]1` [Compound A1, 3-(2-chlorophenyl)-1H-pyrazole-5-carboxylic acid], the IC50 turned out to be 0.68 µM.

In turn, `COc1ccccc1-c1nnc(NC(C)=O)[nH]1` [Compound E5] yielded an IC50 of 1.99 µM.

Compound `Cn1cccc1-c1cc(C(=O)O)[nH]n1` [Compound A7, 3-(1-methyl-1H-pyrrol-2-yl)-1H-pyrazole-5-carboxylate] yielded an IC50 of 10.2 µM.

In turn, `c1ccc(-c2n[nH]c3c2CCC3)cc1` [Compound B11, 3-phenyl-1,4,5,6-tetrahydrocyclopenta[c]pyrazole] yielded an IC50 of 3.4 µM.

The compound `CCOC(=O)C1C(=O)Nc2nc3ccccc3n2C1C(C)C` (stereo not drawn) [Compound E10] registered an IC50 of 3.94 µM.

Regarding `COc1ccccc1-c1nnc(SCc2ccccn2)[nH]1` [Compound C2, 2-((5-(2-methoxyphenyl)-4H-1,2,4-triazol-3-ylthio)methyl)pyridine], the half-maximal inhibitory concentration (IC50) came out at 3.79 µM.

In the case of `COc1cc(CSc2nnc[nH]2)c(OC)cc1CSc1nnc[nH]1` [Compound E6], the IC50 is 1.99 µM.

`CC1(C)Cc2c(sc3cc4n(c(=N)c23)CCCCC4)CO1` [Compound E22] registered an IC50 of 9.5 µM.

`CCCCc1[nH]nc2c1C(=O)CC(C)(C)C2` [Compound B1, 3-butyl-6,6-dimethyl-6,7-dihydro-2H-indazol-4(5H)-one] came in with an IC50 of 1.51 µM.

The compound `COC(=O)c1cc(-c2c[nH]c3ccccc23)[nH]n1` [Compound A2, methyl 3-(1H-indol-3-yl)-1H-pyrazole-5-carboxylate] displayed an IC50 of 0.81 µM.

In turn, `Nc1nc(CSc2n[nH]c(-c3ccccc3)n2)nc(Nc2ccccc2)n1` [Compound C1, N^2-phenyl-6-[(5-phenyl-1H-1,2,4-triazol-3-ylthio)methyl]-1,3,5-triazine-2,4-diamine] registered an IC50 of 2.02 µM.

In the case of `Cn1ncc2c1ncn1c(-c3ccccc3Cl)nnc21` [Compound E14], the IC50 was 5.83 µM.

The compound `CC(C)C1N=C2c3ccccc3N=C(SCC(=O)c3ccc(O)c(O)c3)N2C1=O` (stereo not drawn) [Compound E18] displayed an IC50 of 10.3 µM.

The compound `C=CCSc1nc(-c2ccc(OC)cc2)n[nH]1` [Compound E11] came in with an IC50 of 4.35 µM.

`CCOc1ccc(C)cc1S(=O)(=O)Nc1cccnc1` [Compound F3] had a half-maximal inhibitory concentration (IC50) of 1.93 µM.

`COc1ccc2c(c1)CCc1c-2n[nH]c1C(=O)O` [Compound B9, 7-methoxy-4,5-dihydro-2H-benzo [g]indazole-3-carboxylic acid] registered an IC50 of 0.32 µM.

`O=P(O)(O)c1ccccc1OCCOCCOc1ccccc1P(=O)(O)O` [Compound G1] had an IC50 of 1.66 µM.

`O=C(CSc1nnc(-c2ccccc2Br)[nH]1)NC(=O)NCc1ccco1` [Compound C4, 2-[5-(2-bromophenyl)-4H-1,2,4-triazol-3-ylthio]-N-(furan-2-ylmethylcarbamoyl)acetamide]: 2.54 µM corresponded to half-maximal inhibition (IC50).

`COCc1n[nH]c2c1C(c1cc(OC)c(O)c(OC)c1)C(C#N)=C(N)O2` (stereo not drawn) [Compound B6, 6-amino-4-(4-hydroxy-3,5-dimethoxyphenyl)-3-(methoxymethyl)-1,4-dihydropyrano[2,3-c]pyrazole-5-carbonitrile] came in with an IC50 of 5.25 µM.

The compound `Cc1nc2c3cnn(-c4ccc(C)c(C)c4)c3ncn2n1` [Compound E20] displayed an IC50 of 13 µM.

In turn, `O=C(CSc1nnc(-c2ccccc2)[nH]1)NC(=O)NCc1ccco1` [Compound C5, N-(furan-2-ylmethylcarbamoyl)-2-(5-phenyl-4H-1,2,4-triazol-3-ylthio)acetamide] had an IC50 of 1.57 µM.

On to `[H]/N=C(C)\C(C#N)=C(\O)CSc1nnc(-c2ccccc2Br)[nH]1` [Compound E4], for which the IC50 is 1.06 µM.

Compound `CCOC(=O)c1sc(NC(=O)CSc2nnc(-c3ccccc3OC)[nH]2)c(C#N)c1C` [Compound C3, ethyl 4-cyano-5-{2-[5-(2-methoxyphenyl)-4H-1,2,4-triazol-3-ylthio]acetamide}-3-methylthiophene-2-carboxylate] had an IC50 of 5.39 µM.

Take `Oc1cc(-c2cccc3ccccc23)n[nH]1` [Compound A5, 3-(napthalen-1-yl)-1H-pyrazol-5-ol]: the midpoint of inhibition, the IC50, lay at 3.24 µM.

`O=C(CCCn1c(SCC(=O)c2ccc(O)c(O)c2)nc2ccccc2c1=O)NCC1CCCO1` (stereo not drawn) [Compound H1]: the 50% inhibitory concentration (IC50) came out at 4.66 µM.

`COc1cc(C(=O)Nc2cc(-c3ccccc3)n[nH]2)cc(OC)c1OC` [Compound E7] had an IC50 of 2.39 µM.

`COC(=O)c1cc(-c2ccccc2)n[nH]1` [Compound A4, methyl 3-phenyl-1H-pyrazole-5-carboxylate] showed an IC50 of 0.97 µM.

`Nc1[nH]nc(-c2ccc(Br)cc2)c1Cl` [Compound A6, 3-(4-bromophenyl)-4-chloro-1-H-pyrazol-5-amine] came in with a half-inhibitory concentration (IC50) of 6.51 µM.

`O=C(CSc1nc2ccc[nH]c-2n1)c1ccc(F)cc1` [Compound E15] returned an IC50 of 6.26 µM.

Compound `Cc1cc(O)oc2nnc(-c3ccccc3)c1-2` [Compound B4, 4-methyl-3-phenylpyrano[2,3-c]pyrazol-6-ol] yielded an IC50 of 0.99 µM.

`Cc1ccc(-n2ccc3c2ncn2c(C)nnc32)cc1C` [Compound E17] had a 50% inhibitory concentration (IC50) of 7.92 µM.

Compound `CCCSc1nnc(NC(C)=O)[nH]1` [Compound E3] showed an IC50 of 0.68 µM.

As for `CC1(C)CC(=O)c2c(n[nH]c2Cc2ccccc2)C1` [Compound B3, 3-benzyl-6,6-dimethyl-6,7-dihydro-2H-indazol-4(5H)-one], 0.57 µM corresponded to half-maximal inhibition (IC50).

As for `CC1(C)CC(=O)c2c(n[nH]c2-c2cccs2)C1` [Compound B2, 6,6-dimethyl-3-(thiophen-2-yl)-6,7-dihydro-2H-indazol-4(5H)-one], the half-maximal inhibitory concentration (IC50) came out at 3.67 µM.

Compound `COc1ccc(-c2nnc3oc(O)cc(C)c2-3)cc1` [Compound B5, 3-(4-methoxyphenyl)-4-methylpyrano[2,3-c]pyrazol-6-ol] gave an IC50 of 1.35 µM.

In turn, `N#C/C(=C\c1ccc(O)c(O)c1)C(=O)NCCCc1ccccc1` [Compound H2] yielded an IC50 of 5.16 µM.

On to `Cn1ncc2c1ncn1nc(CCc3ccccc3)nc21` [Compound E21], for which the IC50 turned out to be 16 µM.

In turn, `Clc1ccccc1-c1n[nH]c(-c2ccccc2)n1` [Compound E8] returned an IC50 of 2.47 µM.

Compound `O=C(O)c1cc(-c2ccc(Cl)cc2)n[nH]1` [Compound A3, 3-(4-chlorophenyl)-1H-pyrazole-5-carboxylic acid] yielded an IC50 of 0.95 µM.

Compound `COc1ccc(OC)c(C(=O)CSc2nc3ccc[nH]c-3n2)c1` [Compound E12] displayed an IC50 of 4.68 µM.

In turn, `O=C(O)c1[nH]nc2c1COc1ccccc1-2` [Compound B10, 2,4-dihydrochromeno[4,3-c]pyrazole-3-carboxylic acid] registered a concentration for half-maximal inhibition (IC50) of 1.35 µM.

`COc1ccc(OC)c(S(=O)(=O)Nc2ccc(O)c(Sc3nc[nH]n3)c2)c1` [Compound F4]: it took 8.45 µM to reach half-maximal inhibition (IC50).

Take `Oc1nc2cc(Cl)ccc2n1-c1ccccc1` [Compound E13]: the IC50 amounted to 5.34 µM.

Consider `Cc1cccc(C)c1OCc1nnc2c3cnn(C)c3ncn12` [Compound E16], for which the IC50 came out at 6.89 µM.

In the case of `Cc1ccsc1/C=c1\sc2ncnn2c1=O` [Compound E19], half-maximal inhibition (IC50) was put at 11.3 µM.

As to `O=C1C2CC=CCC2C(=O)N1c1nnc(Cc2ccccc2)[nH]1` (stereo not drawn) [Compound E2], half-maximal inhibition (IC50) required 0.33 µM.

`COc1ccc(C)cc1S(=O)(=O)Nc1cccnc1` [Compound F2] had an IC50 of 0.75 µM.

In turn, `O=P(O)(O)c1ccccc1OCCCCCOc1ccccc1P(=O)(O)O` [Compound G2] came in with a half-inhibitory concentration (IC50) of 2.05 µM.

`COc1ccc(-c2nc3n(n2)C(=O)CC(c2ccco2)S3)cc1` (stereo not drawn) [Compound E9] yielded an IC50 of 3.82 µM.

`Cc1cc(NC(=O)COC(=O)c2[nH]nc3ccccc23)no1` [Compound B8, 2-(5-methylisoxazol-3-ylamino)-2-oxoethyl 2H-indazole-3-carboxylate] gave an IC50 of 9.43 µM.
